Source: US4339378A, “N-Acylcarnosine aluminum salts” (Nippon Chemiphar Co., Ltd., priority 1979, dated 1982)

What was measured:
Format in all cases: in vivo, male Donryu strain rats
Shay's ulcer in rats = test: Shay's ulcer (pylorus ligation) in rats; conditions: for Ulcer index: total ulcerated area in forestomach
Procedure: Shay's ulcer: Groups of ten male Donryu strain rats each weighing 210 to 230 g were deprived of food for 48 hours. The pylorus of each rat was ligated according to the method of Shay et al [Gastroenterology, 5, 43-61 (1945)]. Each of the animals was allowed to stand abstained from food and water for further 14 hours and then sacrificed to remove its stomach. After collection of the gastric juice, the ulcerated area (mm^2) in the forestomach of each rat was measured under a dissecting microscope (10×). The total area (mm^2) of all the lesions of each rat was indicated as an ulcer index. Test medicine samples were given orally immediately after the pylorus ligation.

[1] = system: Aspirin-induced ulcer in rats; test: Aspirin-induced ulcer in rats; conditions: 1,000 mg/kg P.O., aspirin 100 mg/kg; for Ulcer index: total lesion length, control 17.7 ± 2.3
Procedure: Aspirin-induced ulcer: Groups of ten male Donryu strain rats each weighing 220 to 230 g were deprived of food for 24 hours. The pylorus of each rat was ligated under ether anethesia according to the method of S. Okabe et al [Jap. J. Pharmac. 24, 357-361 (1974)]. After the pylorus ligation, aspirin (100 mg/kg) was administered orally to each rat. Seven hours after the administration, each of the animals was sacrificed under ether anesthesia to remove its stomach. After collection of the gastric juice and treatment with a 1% formalin solution, the length (mm) of each lesion formed in the glandular portion was measured. The total length (mm) of all the lesions of each rat was indicated as an ulcer index. Test medicine samples were given orally immediately after the pylorus ligation.

[2] = system: Indomethacin-induced ulcer in rats; test: Indomethacin-induced ulcer in rats; conditions: 300 mg/kg P.O., indomethacin 25 mg/kg s.c.; for Ulcer index: total lesion length, control 16.3 ± 2.4
Procedure: Indomethacin-induced ulcer: Groups of ten male Donryu strain rats each weighing 200 to 215 g were deprived of food for 24 hours. Then, the pylorus was ligated under ether anethesia, after which indomethacin was administered subcutaneously in an amount of 25 mg/kg to each rat. Seven hours after the administration, each of the animals was sacrificed under ether anethesia to remove its stomach, followed by immersion in a 1% formalin solution for ten minutes. The stomach which had been semi-fixed was incised along its greater curvature, and the length (mm) of each lesion formed in the mucous membrane was measured under a dissecting microscope (10×). The total length (mm) of all the lesions of each rat was indicated as an ulcer index. Test medicine samples were given orally ten minutes before the pylorus logation.

Stress ulcer in rats = test: Stress ulcer (restraint and water immersion) in rats; conditions: for Ulcer index: total lesion length in glandular portion, control 15.2 ± 3.2
Procedure: Stress ulcer: Groups of ten male Donryu strain rats each weighing 240 to 260 g were placed in a stress cage which served to immobilize the animals therein and then immersed in a water bath of 23° C. on a level with the xiphoid process according to the method of K. Takagi et al [Jap. J. Pharmac., 18 (9), 9-19 (1968)], thereby imposing stress on each rat. Seven hours after the immersion, each of the animals was withdrawn from the water bath and immediately sacrificed by a blow on the head, followed by removal of the stomach of each rat. The stomach was slightly inflated by injecting a 1% formalin solution and then immediately immersed in a 1% formalin solution, followed by incising the stomach along its greater curvature to measure the length (mm) of each lesion in the glandular portion under a dissecting microscope (10×). The total length (mm) of all the lesions of each rat was indicated as an ulcer index. Test medicine samples were given orally ten minutes before the immersion in water.

[3] = system: Histamine-induced ulcer in rats; test: Histamine-induced ulcer in rats; conditions: 300 mg/kg P.O., histamine phosphate 300 mg/kg i.p.; for Ulcer index: total lesion length, control 24.1 ± 4.7
Procedure: Histamine-induced ulcer: Groups of ten male Donryu strain rats each weighing 210 to 230 g were deprived of food for 48 hours and then administered intraperitoneally with histamine phosphate (300 mg/kg). Four hours after the administration, each of the animals was sacrificed under ether anesthesia, followed by removal of its stomach and immersion in a 1% formalin solution for ten minutes. The stomach which had been semi-fixed was incised along the greater curvature, and the length (mm) of each lesion was measured under a dissecting microscope (10×). The total length (mm) of all the lesions of each rat was indicated as an ulcer index. Test medicine samples were given orally before the histamine administration.

[4] = 1,000 mg/kg P.O., first series (control 2.4 ± 0.7)
[5] = 2,000 mg/kg P.O., second series (control 2.9 ± 0.4)
[6] = 1,000 mg/kg P.O., second series (control 2.9 ± 0.4)

Compound	% Inhibition (Shay's ulcer in rats; [4]) [%]	Ulcer index (Shay's ulcer in rats; [4]) [mm^2]	% Inhibition [1] [%]	Ulcer index [1] [mm]	% Inhibition [2]	Ulcer index [2] [mm]	% Inhibition (Shay's ulcer in rats; [5]) [%]	Ulcer index (Shay's ulcer in rats; [5]) [mm^2]	% Inhibition (Shay's ulcer in rats; [6]) [%]	Ulcer index (Shay's ulcer in rats; [6]) [mm^2]	% Inhibition (Stress ulcer in rats; 1,000 mg/kg P.O.) [%]	Ulcer index (Stress ulcer in rats; 1,000 mg/kg P.O.) [mm]	% Inhibition [3] [%]	Ulcer index [3] [mm]	% Inhibition (Stress ulcer in rats; 300 mg/kg P.O.) [%]	Ulcer index (Stress ulcer in rats; 300 mg/kg P.O.) [mm]
NC(=O)CC[C@H](N)C(=O)O [L-Glutamine, L-glutamine]	8.3	2.2 ± 0.8	66.1	6.0 ± 2.2	41.8%	9.5 ± 4.1										
CC(=O)N[C@@H](CCC(N)=O)C(=O)O.[Al] [N-Acetyl-L-glutamine aluminum, N-acetyl-L-glutamine aluminum]							69.0	0.9 ± 0.7								
aluminum sucrose sulfate	71.0	0.7 ± 0.8	79.1	3.7 ± 2.1	52.1%	7.8 ± 3.0			72.4	0.8 ± 0.6	56.7	6.5 ± 6.0	40.2	14.4 ± 1.5		
NCCC(=O)N[C@@H](Cc1cnc[nH]1)C(=O)O [L-Carnosine, L-carnosine]	12.5	2.1 ± 0.7			~ 0%	17.3 ± 3.0					29.6	10.7 ± 2.2	28.2	17.3 ± 3.2	6.6	14.2 ± 3.7
N-acetylcarnosine aluminum salt	80.4	0.47 ± 0.4	96.0	0.7 ± 0.6	63.2%	6.0 ± 2.4					70.4	4.5 ± 2.4	61.0	9.4 ± 2.0	46.7	8.1 ± 2.9
N-acetyl-L-carnosine aluminum salt [B]									79.3	0.6 ± 0.8						
